In the supplement of paper PMC11061612:

Experiments:
[1] = system: A172 (Glioblastoma); test: Bliss excess, mean over the matrix (fraction); higher = more synergy
Method in brief: (§1)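 Cell lines in DMEM/F12 or RPMI with 10% FBS were plated in 1536-well plates, held 24 hours at 37°C, 5% CO2, then given two-drug dose matrices for 72 hours (DMSO typically 0.2%). Viability was read by CellTiter-Glo 2.0 luminescence and scaled as inhibition from 0 (vehicle wells) to 1 (blank wells). Combination Emax is the second-highest inhibition in the matrix; Bliss excess is observed combination effect minus expected EA + EB − EA·EB, EA and EB being single-agent effects.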

[2] = system: BICR78 (Oral Cavity Carcinoma); test: as above
Method in brief: as §1

[3] = system: D-283MED (Other Solid Carcinomas); test: as above
Method in brief: as §1

[4] = system: HCC-827 (Lung Adenocarcinoma); test: as above
Method in brief: as §1

[5] = system: Saos-2 (Osteosarcoma); test: as above
Method in brief: as §1

[6] = system: WSU-DLCL2 (B-Cell Non-Hodgkin's Lymphoma); test: as above
Method in brief: as §1

[7] = system: CAL-39 (Other Solid Carcinomas); test: combination Emax (second highest fraction inhibited in the dose matrix, 72 h); higher = more inhibition; extreme values may be limits of the assay
Method in brief: as §1

[8] = system: EKVX (Non-Small Cell Lung Carcinoma); test: as above
Method in brief: as §1

[9] = system: ETK-1 (Biliary Tract Carcinoma); test: as above
Method in brief: as §1

[10] = system: HCC38 (Breast Carcinoma); test: as above
Method in brief: as §1

[11] = system: HOP-92 (Non-Small Cell Lung Carcinoma); test: as above
Method in brief: as §1

[12] = system: MES-SA (Other Solid Carcinomas); test: as above
Method in brief: as §1

[13] = system: MSTO-211H (Mesothelioma); test: as above
Method in brief: as §1

[14] = system: P31-FUJ (Acute Myeloid Leukemia); test: as above
Method in brief: as §1

[15] = system: RCC10RGB (Kidney Carcinoma); test: as above
Method in brief: as §1

[16] = system: SKN-3 (Head and Neck Carcinoma); test: as above
Method in brief: as §1

[17] = system: SLVL (B-Cell Non-Hodgkin's Lymphoma); test: as above
Method in brief: as §1

[18] = system: SNU-61 (Colorectal Carcinoma); test: as above
Method in brief: as §1

[19] = system: Saos-2 (Osteosarcoma); test: as above
Method in brief: as §1

[20] = system: YT (Other Blood Carcinomas); test: as above
Method in brief: as §1
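Wherever Bliss excess, mean over the matrix is given: after 72 h of two-drug dosing.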

Row | SMILES | Bliss excess [1] | Bliss excess [2] | Bliss excess [3] | Bliss excess [4] | Bliss excess [5] | Bliss excess [6] | combination Emax [7] | combination Emax [8] | combination Emax [9] | combination Emax [10] | combination Emax [11] | combination Emax [12] | combination Emax [13] | combination Emax [14] | combination Emax [15] | combination Emax [16] | combination Emax [17] | combination Emax [18] | combination Emax [19] | combination Emax [20]
1 | COc1cccc(OCCCN)c1-c1cc(Nc2cnc(C#N)cn2)n[nH]1 [Prexasertib] + C=CCn1c(=O)c2cnc(Nc3ccc(N4CCN(C)CC4)cc3)nc2n1-c1cccc(C(C)(C)O)n1 [AZD1775] (first compound max 1 µM, partner max 1 µM) | 0.142 | 0.0619 | 0.079 | -0.029 | 0.105 | 0.138 | 0.694 | 0.287 | 0.666 | 0.799 | 0.7 | 0.892 | 0.875 | 1 | 0.6 | 0.771 | 0.951 | 0.515 | 0.935 | 0.971
2 | CN(C)CCCOc1ccc(-c2ccc3ncc4c(c3c2)n(C2CCOCC2)c(=O)n4C)cn1 [AZD0156] + C=CCn1c(=O)c2cnc(Nc3ccc(N4CCN(C)CC4)cc3)nc2n1-c1cccc(C(C)(C)O)n1 [AZD1775] (first compound max 1 µM, partner max 1 µM) | -0.0431 | -0.0107 | -0.0408 | 0.0075 | -0.0379 | -0.0119 | 0.376 | 0.179 | 0.515 | 0.505 | 0.631 | 0.768 | 0.667 | 0.912 | 0.464 | 0.139 | 0.904 | 0.248 | 0.494 | 0.888
3 | COc1cccc2c1C(=O)c1c(O)c3c(c(O)c1C2=O)C[C@@](O)(C(=O)CO)C[C@@H]3O[C@H]1C[C@H](N)[C@H](O)[C@H](C)O1 [Doxorubicin] + Cc1cc2ncnn2cc1Nc1ncc2c(n1)n(C1CCOCC1)c(=O)n2C [AZD7648] (first compound max 1 µM, 7x7, partner max 10 µM) | 0.0789 | 0.028 | 0.0461 | 0.0178 | 0.0415 | 0.101 | 0.654 | 0.378 | 0.562 | 0.555 | 0.547 | 0.826 | 0.813 | 0.995 | 0.29 | 0.32 | 0.975 | 0.321 | 0.862 | 0.862
4 | CC1(C)CCC(CN2CCN(c3ccc(C(=O)NS(=O)(=O)c4ccc(NCC5CCOCC5)c([N+](=O)[O-])c4)c(Oc4cnc5[nH]ccc5c4)c3)CC2)=C(c2ccc(Cl)cc2)C1 [Venetoclax] + C1CN(CCC1(C(=O)N[C@@H](CCO)C2=CC=C(C=C2)Cl)N)C3=NC=NC4=C3C=CN4 [Capivasertib] (first compound max 1 µM, 7x7, partner max 3 µM) | -0.0461 | -0.0342 | -0.0218 | -0.0278 | -0.029 | 0.0415 | 0.279 | 0.302 | 0.331 | 0.244 | 0.402 | 0.355 | 0.251 | 0.896 | 0.197 | 0.0823 | 0.786 | 0.154 | 0.412 | 0.47
5 | COc1cccc(OCCCN)c1-c1cc(Nc2cnc(C#N)cn2)n[nH]1 [Prexasertib] + C[C@@H]1COCCN1C2=NC(=NC(=C2)C3(CC3)[S@](=N)(=O)C)C4=C5C=CNC5=NC=C4 [AZD6738] (first compound max 1 µM, 7x7, partner max 10 µM) | 0.0013 | -0.0057 | 0.0042 | -0.0234 | -0.0739 | 0.0096 | 0.524 | 0.24 | 0.588 | 0.723 | 0.669 | 0.757 | 0.852 | 1 | 0.45 | 0.637 | 0.952 | 0.422 | 0.704 | 0.918
6 | CC1(C)CCC(CN2CCN(c3ccc(C(=O)NS(=O)(=O)c4ccc(NCC5CCOCC5)c([N+](=O)[O-])c4)c(Oc4cnc5[nH]ccc5c4)c3)CC2)=C(c2ccc(Cl)cc2)C1 [Venetoclax] + C[C@@H]1COCCN1C2=NC(=NC(=C2)C3(CC3)[S@](=N)(=O)C)C4=C5C=CNC5=NC=C4 [AZD6738] (first compound max 1 µM, 7x7, partner max 10 µM) | -0.0141 | -0.0397 | -0.0345 | -0.0418 | -0.0316 | 0.0423 | 0.397 | 0.214 | 0.723 | 0.531 | 0.562 | 0.671 | 0.596 | 0.968 | 0.5 | 0.576 | 0.939 | 0.43 | 0.584 | 0.852
